We go through 85 compounds from ChEMBL document CHEMBL1131120, “The frontier orbital phase angles: novel QSAR descriptors for benzene derivatives, applied to phenylalkylamine hallucinogens” (1998).

The assay is filed under the species Homo sapiens. In words: Compound tested for hallucinogenic activity in humans was reported; Value reported in (A)= Mescaline units. Type of assay: functional.

For `COc1cc(CC(C)N)c(OC)c(OC)c1` (stereo not given), the Activity was found to be 4.

`COc1cc2c(cc1CC(C)N)OCO2` (stereo not given) gave an Activity of 8.

In turn, `COc1cc(CC(C)N)cc(OC)c1Br` (stereo not given) came in with an Activity of 43.

Consider `COc1cc(CC(C)N)c(OC)cc1CCF` (stereo not given), for which the Activity is on record as 110.

`CCCCSc1c(OC)cc(CCN)cc1OC` came in with an Activity of 3.

As to `C=CCOc1c(OC)cc(CC(C)N)cc1OC` (stereo not given), the Activity is reported as 11.

`COCCSc1cc(OC)c(CCN)cc1OC`: the Activity worked out at 9.

`COc1cc(CC(C)N)c(SC)cc1C` (stereo not given) returned an Activity of 4.

Regarding `COc1cc(CCN)c(OC)c2c1C1CCC2C1` (stereo not given), the Activity is 22.

On to `COc1cc(CCN)c(OC)cc1C`, for which the Activity is on record as 8.

The compound `CCc1cc(OC)c(CCN)cc1OC` returned an Activity of 18.

For the compound `CCOc1cc(CCN)cc(OC)c1OCC`, the Activity was 1.3.

`COc1cc(CC(C)N)c(OC)c2c1CCC2` (stereo not given) returned an Activity of 20.

Take `COc1cc(CCN)c(OC)cc1Cl`: the Activity was 10.

Take `COc1cc(CC(C)N)c(OC)c(OC)c1OC` (stereo not given): the Activity is recorded as 6.

Turning to `COc1ccc(OC)c(OC)c1CC(C)N` (stereo not given), the Activity turned out to be 10.

Compound `COc1cc(CCN)cc(OC)c1OC(C)C` displayed an Activity of 5.

Compound `CC(C)(N)Cc1ccc2c(c1)OCO2` gave an Activity of 1.5.

`CCSc1cc(CCN)cc(OC)c1OC`: the Activity was 4.

As for `CCNC(C)Cc1ccc2c(c1)OCO2` (stereo not given), the Activity was 2.

`COc1cc(CC(C)N)c(OC)c2c1OCO2` (stereo not given) gave an Activity of 6.

For the compound `CCCSc1cc(OC)c(CCN)cc1OC`, the Activity was 15.

`COc1cc(CC(C)N)cc2c1OCO2` (stereo not given): the Activity stood at 2.

As for `COc1cc(SCCF)c(OC)cc1CCN`, the Activity amounted to 29.

In turn, `CCOc1cc(CCN)cc(SC)c1OCC` registered an Activity of 2.

Consider `CCOc1c(OC)cc(CCN)cc1SCC`, for which the Activity was determined as 2.

As for `C=C(C)COc1c(OC)cc(CCN)cc1OC`, the Activity worked out at 6.

For the compound `CCOc1cc(CCN)cc(OC)c1SCC`, the Activity came out at 4.

`CCOc1cc(CCN)cc(OC)c1OC`: the Activity is reported as 1.

Turning to `CCc1cc(OC)c(CC(C)N)cc1SC` (stereo not given), the Activity is reported as 15.

The compound `COc1cc(CCN)c(OC)c(C)c1C` displayed an Activity of 11.

On to `COc1cc(SC)c(OC)cc1CCN`, for which the Activity worked out at 4.

Regarding `CCC(C)Sc1cc(OC)c(CCN)cc1OC` (stereo not given), the Activity turned out to be 4.

The compound `COc1cc(SC(C)(C)C)c(OC)cc1CCN` yielded an Activity of 4.

On to `CC(Cc1ccc2c(c1)OCO2)NO` (stereo not given), for which the Activity came out at 2.3.

In turn, `CCC(C)Sc1cc(OC)c(CCNO)cc1OC` (stereo not given) registered an Activity of 3.

Turning to `CCCSc1cc(OC)c(CCNO)cc1OC`, the Activity is given as 15.

Compound `CCSc1cc(OC)c(CCNO)cc1OC` returned an Activity of 22.

In turn, `COc1c(CC(C)N)ccc2c1OCO2` (stereo not given) returned an Activity of 6.

In turn, `COc1cc(SC(C)C)c(OC)cc1CC(C)N` (stereo not given) returned an Activity of 32.

As to `COc1cc(CCN)cc(OC)c1C`, the Activity is 4.

The compound `CCCSc1c(OC)cc(CCN)cc1OC` returned an Activity of 16.

In turn, `COc1cc(CC(C)N)cc(OC)c1OCc1ccccc1` (stereo not given) yielded an Activity of 3.

The compound `COc1cc(SCC2CC2)c(OC)cc1CCN` had an Activity of 7.

With `CCOc1c(OC)cc(CC(C)N)cc1OC` (stereo not given), the Activity came to 7.

In the case of `COc1cc(C2CC2N)c(OC)cc1C` (stereo not given), the Activity is recorded as 17.

The compound `COc1cc(CCN)cc(SC)c1OC` yielded an Activity of 4.

Compound `CCC(Cc1ccc2c(c1)OCO2)NC` (stereo not given) had an Activity of 1.5.

In turn, `COc1cc(CCN)cc(OC)c1SC` showed an Activity of 10.

For `COc1cc(CCN)c(OC)cc1Br`, the Activity worked out at 16.

In turn, `COc1cc(C)cc(OC)c1CC(C)N` (stereo not given) registered an Activity of 15.

For `COc1cc(CC(C)N)cc(OC)c1OC` (stereo not given), the Activity was determined as 2.

`CCOc1c(OC)cc(CCN)cc1OC` had an Activity of 6.

In turn, `CCOc1c(OC)cc(CCN)cc1SC` displayed an Activity of 4.

`COc1cc(CCN)c(OC)c2ccccc12`: the Activity was 10.

Consider `COc1cc(C)c(SC)cc1CC(C)N` (stereo not given), for which the Activity amounted to 7.

For the compound `COc1cc(SC(C)C)c(OC)cc1CCN`, the Activity was 21.

`COc1cc(CCN)c(OC)cc1I`: the Activity stood at 17.

In turn, `COc1cc(OC)c(CC(C)N)cc1Br` (stereo not given) returned an Activity of 4.

With `CCCc1cc(OC)c(CCN)cc1OC`, the Activity turned out to be 37.

The compound `CCSc1cc(OC)c(CCN)cc1OC` came in with an Activity of 16.

Compound `COc1cc(CC(C)N)c(OC)c(C)c1C` (stereo not given) displayed an Activity of 12.

`CCSc1cc(OC)c(CC(C)N)cc1OC` (stereo not given) yielded an Activity of 50.

`CCSc1c(OC)cc(CCN)cc1OC` displayed an Activity of 12.

For the compound `CCCOc1c(OC)cc(CCN)cc1OC`, the Activity amounted to 7.

Compound `COc1cc(CCN)c(OC)c2c1CCC2` displayed an Activity of 14.

Turning to `COc1cc(OC)c(CC(C)N)c(OC)c1` (stereo not given), the Activity is reported as 10.

For `CCCSc1cc(OC)c(CC(C)N)cc1OC` (stereo not given), the Activity stood at 55.

`COc1cc(CCN)cc(OC)c1OCC1CC1` had an Activity of 4.

In turn, `CCOc1cc(CCN)cc(OC)c1SC` yielded an Activity of 4.

On to `COc1cc(SC)c(OC)cc1CC(C)N` (stereo not given), for which the Activity came to 40.

In turn, `CCC(N)Cc1ccc2c(c1)OCO2` (stereo not given) returned an Activity of 1.5.

Turning to `COc1cc(CC(C)N)c(OC)cc1I` (stereo not given), the Activity turned out to be 133.

Regarding `COc1cc(CC(C)N)c(OC)cc1Cl` (stereo not given), the Activity was found to be 133.

`CCc1cc(OC)c(CC(C)N)cc1OC` (stereo not given) came in with an Activity of 75.

`CCOc1cc(OC)c(CC(C)N)cc1OC` (stereo not given) had an Activity of 9.

In the case of `COc1cc([N+](=O)[O-])c(OC)cc1CC(C)N` (stereo not given), the Activity is recorded as 80.

Consider `COc1cc(OC)c(OC)cc1CC(C)N` (stereo not given), for which the Activity is recorded as 10.

Turning to `CCCc1cc(OC)c(CC(C)N)cc1OC` (stereo not given), the Activity was found to be 80.

On to `COc1ccc(OC)c(CC(C)N)c1` (stereo not given), for which the Activity came to 2.5.

The compound `COc1cc(CC(C)N)c(OC)cc1Br` (stereo not given) [BROLAMFETAMINE] registered an Activity of 150.

`COc1cc(CC(C)N)c(OC)cc1C` (stereo not given) [DOM] showed an Activity of 50.

`COc1cc(CCN)cc(OC)c1OC` [MESCALINE] registered an Activity of 1.

The compound `COc1ccc(CC(C)N)cc1` (stereo not given) [PARA-METHOXYAMPHETAMINE] came in with an Activity of 5.

`CC(N)Cc1ccc2c(c1)OCO2` (stereo not given) [TENAMFETAMINE]: the Activity worked out at 3.
